Earlier results as cited in patent US20230310464A1, “USE OF C[…] THE TREATMENT OF SEIZURES ASSOCIATED WITH RARE […] SYNDROMES RELATED TO BRAIN INJURY” (GW Research Limited, priority 2020, published 2023).

Legend:
[1] = test system: new-born piglets with HIE; settings: Alvarez et al. (2008); cited from earlier work
[2] = test system: patients with Dravet and Lennox-Gastaut syndrome; settings: purified pharmaceutical formulation of CBD, three trials; cited from earlier work
[3] = test system: seizures in patients with Lennox Gastaut syndrome; settings: 100% CBD, half also with HIE, Morales et al.; cited from earlier work
[4] = test system: HI injury in an animal model of NHIE; settings: CBD combined with therapeutic hypothermia, GB 2504263; cited from earlier work

## C=C(C)[C@@H]1CCC(C)=C[C@H]1c1c(O)cc(CCCCC)cc1O [CBD, cannabidiol]
[1]
  effect on seizures in piglets (in words): A reduction in seizures was reported
  proportion of CBD-treated piglets that still maintained significant seizures: half
[2]
  efficacy in randomized control trials (in words): showed efficacy
[3]
  effect on seizures in LGS patients (in words): a reduction in seizures was obtained
[4]
  neuroprotection following HI injury (in words): synergistic in neuroprotection
